Source: the supplement of paper PMC10307832

Key:
Assay in all cases: relative viability (nuclei count vs DMSO), 5 days (fraction); higher = more cells survive
[1] = compound: CN1CCC(CNc2ccc3ncc(-c4cccc(OC(F)(F)F)c4)n3n2)CC1 [SGI-1776] + CC(C)C[C@H](NC(=O)[C@H](Cc1ccccc1)NC(=O)c1cnccn1)B(O)O [Bortezomib] (partner 0.002 µM)
Summary of the method: (§1)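 Lung cancer cell lines, seeded in 1536-well plates, were treated the following day by pin tool with a single drug or with five library-drug doses (not always all listed) in √10 steps on top of a fixed anchor-drug dose. Cells were fixed and nuclei stained in one step after 5 days, and nuclei were counted. Relative viability is the nuclei count for treated wells divided by that for vehicle wells, reported as medians of duplicate plates.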

[2] = compound: CN1CCC(CNc2ccc3ncc(-c4cccc(OC(F)(F)F)c4)n3n2)CC1 [SGI-1776] + Cc1cc(Nc2cc(N3CCN(C)CC3)nc(Sc3ccc(NC(=O)C4CC4)cc3)n2)n[nH]1 [Tozasertib] (partner 0.1 µM)
Summary of the method: as §1

[3] = compound: Nc1ccccc1NC(=O)c1ccc(CNC(=O)OCc2cccnc2)cc1 [Entinostat] + CC1(C)CCC(c2ccc(Cl)cc2)=C(CN2CCN(c3ccc(C(=O)NS(=O)(=O)c4ccc(N[C@H](CCN5CCOCC5)CSc5ccccc5)c(S(=O)(=O)C(F)(F)F)c4)cc3)CC2)C1 [Navitoclax] (partner 0.5 µM)
Summary of the method: as §1

[4] = compound: Nc1ccccc1NC(=O)c1ccc(CNC(=O)OCc2cccnc2)cc1 [Entinostat] + Nc1nc2[nH]cc(CCc3ccc(C(=O)N[C@@H](CCC(=O)O)C(=O)O)cc3)c2c(=O)[nH]1 [Pemetrexed] (partner 0.2 µM)
Summary of the method: as §1

Cell Line | relative viability ([1]; first compound 0.08 µM) | relative viability ([1]; first compound 0.8 µM) | relative viability ([1]; first compound 2.53 µM) | relative viability ([1]; first compound 8 µM) | relative viability ([2]; first compound 0.08 µM) | relative viability ([2]; first compound 0.8 µM) | relative viability ([2]; first compound 2.53 µM) | relative viability ([2]; first compound 8 µM) | relative viability ([3]; first compound 0.02 µM) | relative viability ([3]; first compound 0.06325 µM) | relative viability ([3]; first compound 0.2 µM) | relative viability ([3]; first compound 0.6325 µM) | relative viability ([3]; first compound 2 µM) | relative viability ([4]; first compound 0.02 µM) | relative viability ([4]; first compound 0.06325 µM) | relative viability ([4]; first compound 0.2 µM) | relative viability ([4]; first compound 0.6325 µM) | relative viability ([4]; first compound 2 µM)
NCI-H1437 | 0.587 | 0.525 | 0.536 | 0.352 | 0.435 | 0.439 | 0.344 | 0.314 | 1.01 | 0.679 | 0.432 | 0.216 | 0.155 | 0.318 | 0.282 | 0.231 | 0.178 | 0.148
EPLC-272H | 0.939 | 1.06 | 0.927 | 0.739 | 0.326 | 0.194 | 0.194 | 0.175 | 1.12 | 0.956 | 0.979 | 0.424 | 0.365 | 0.391 | 0.322 | 0.304 | 0.244 | 0.248
ChaGo-K-1 | 0.982 | 1.22 | 0.644 | 0.785 | 0.242 | 0.22 | 0.223 | 0.177 | 1.23 | 1.04 | 1.11 | 0.783 | 0.679 | 0.269 | 0.262 | 0.271 | 0.264 | 0.259
NCI-H1666 | 0.81 | 0.826 | 0.918 | 0.56 | 0.667 | 0.44 | 0.406 | 0.436 | 1.13 | 1.09 | 0.861 | 0.463 | 0.277 | 0.866 | 0.989 | 0.913 | 0.75 | 0.579
HCC-44 | 0.942 | 0.908 | 0.98 | 0.895 | 0.904 | 0.491 | 0.336 | 0.246 | 1.02 | 0.826 | 0.418 | 0.403 | 0.235 | 0.63 | 0.604 | 0.631 | 0.562 | 0.564
RERF-LC-KJ | 1.1 | 1.08 | 0.956 | 1.04 | 0.473 | 0.412 | 0.235 | 0.225 | 0.679 | 0.905 | 1.13 | 0.414 | 0.314 | 0.494 | 0.486 | 0.474 | 0.408 | 0.319
LU99A | 1.3 | 1.15 | 1.53 | 1.03 | 0.252 | 0.239 | 0.229 | 0.25 | 0.752 | 0.916 | 0.75 | 0.567 | 0.421 | 0.188 | 0.181 | 0.184 | 0.175 | 0.179
PC-3 [JPC-3] | 0.867 | 0.806 | 0.845 | 0.687 | 0.911 | 0.9 | 0.863 | 0.544 | 0.786 | 0.846 | 0.777 | 0.522 | 0.423 | 1.36 | 1.05 | 0.924 | 0.686 | 0.461
NCI-H2126 | 1.15 | 1.18 | 1.04 | 1.13 | 0.926 | 0.607 | 0.553 | 0.239 | 0.849 | 0.833 | 0.855 | 0.548 | 0.396 | 0.71 | 0.687 | 0.674 | 0.405 | 0.306
LXF-289 | 1.03 | 1.04 | 1.02 | 0.973 | 0.171 | 0.212 | 0.184 | 0.0856 | 0.929 | 0.908 | 0.922 | 0.786 | 0.567 | 0.878 | 0.878 | 0.869 | 0.719 | 0.665
BEN | 0.909 | 0.918 | 0.754 | 0.624 | 0.523 | 0.599 | 0.62 | 0.453 | 0.0534 | 0.0509 | 0.0495 | 0.0765 | 0.062 | 0.88 | 1.02 | 0.891 | 0.564 | 0.413
SW 1573 | 1.03 | 0.872 | 1.07 | 0.935 | 0.174 | 0.16 | 0.174 | 0.17 | 0.933 | 1.35 | 1.07 | 0.996 | 0.628 | 0.806 | 0.88 | 1.08 | 0.966 | 0.452
NCI-H1993 | 1.21 | 1.14 | 0.967 | 0.803 | 0.568 | 0.607 | 0.57 | 0.571 | 0.869 | 0.857 | 0.789 | 0.841 | 0.73 | 0.53 | 0.609 | 0.558 | 0.536 | 0.472
SK-LU-1 | 1.28 | 1.31 | 1.52 | 0.807 | 0.397 | 0.265 | 0.212 | 0.207 | 0.633 | 0.76 | 1.1 | 0.37 | 0.368 | 1 | 0.921 | 0.988 | 0.879 | 0.485
NCI-H460 | 1.18 | 1.2 | 1.11 | 0.82 | 0.475 | 0.278 | 0.0744 | 0.0448 | 1.08 | 0.973 | 1.04 | 0.0885 | 0.0187 | 0.0727 | 0.068 | 0.076 | 0.0606 | 0.041
LCLC-97TM1 | 0.775 | 0.557 | 0.549 | 0.567 | 0.211 | 0.188 | 0.163 | 0.185 | 0.341 | 0.358 | 0.473 | 0.308 | 0.272 | 0.149 | 0.169 | 0.148 | 0.196 | 0.168
HCC-78 | 0.48 | 0.516 | 0.516 | 0.45 | 0.466 | 0.318 | 0.41 | 0.308 | 0.739 | 0.652 | 0.498 | 0.218 | 0.181 | 0.922 | 0.873 | 0.946 | 0.871 | 0.908
NCI-H1975 | 0.393 | 0.399 | 0.35 | 0.277 | 0.809 | 0.335 | 0.169 | 0.175 | 0.906 | 0.782 | 0.751 | 0.289 | 0.188 | 0.283 | 0.306 | 0.27 | 0.219 | 0.185
